Results on 14 molecules are retold here after PubChem BioAssay (NCI).

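Values below derive from 48-hour exposures of cells grown in 96-well plates, with endpoints linearly interpolated between the two concentrations bracketing the appropriate inhibition level. At the TGI there is no net growth.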 Bounds are passed on as bounds.

What all share (test): inhibition of tumour cell growth, NCI panel, 48 h
The subject of assay [1] is A498 renal.
The test system of assay [2] is A549 NSCLC.
In assay [3] the test system is ACHN renal.
Assay [4] concerns BT-549 breast.
Assay [5] has as its system CCRF-CEM leukemia.
Assay [6] deals with DU-145 prostate.
The test system of assay [7] is EKVX NSCLC.
Assay [8] has as its system HCC-2998 colon.
Assay [9] has as its system IGROV1 ovarian.
The subject of assay [10] is MDA-MB-435.
Assay [11] concerns NCI-H23 lung.
Assay [12] concerns NCI/ADR-RES ovarian.
Assay [13] deals with OVCAR-4 ovarian.
For assay [14], the system named is OVCAR-5 ovarian.
Assay [15] relates to PC-3 prostate.
Assay [16] deals with SF-295 CNS.
In assay [17] the test system is SF-539 CNS.
The test system of assay [18] is SK-MEL-28 melanoma.
Assay [19] concerns SW-620 colon.
The test system of assay [20] is UACC-257 melanoma.

For the molecule `CCOC(=O)c1nc2ccccc2nc1Nc1ccc(OC)cc1`, the TGI was 84.5 µM in assay [1]; greater than 100 µM in assay [2]; greater than 100 µM in assay [3]; 73.6 µM in [4]; greater than 100 µM in [5]; greater than 100 µM in assay [6]. The TGI in [7], in assay [8], in assay [9], in assay [10], in assay [11] and in assay [12] was greater than 100 µM throughout. Further, the TGI is 55.7 µM in assay [13]; greater than 100 µM in assay [14]; greater than 100 µM in [15]; 54.4 µM in assay [16]; 52.1 µM in [17]; greater than 100 µM in assay [18]. The TGI in assay [19] and in assay [20] was greater than 100 µM throughout.

For `CC(C)CC(NP(=O)(O)OC1OC(C)C(O)C(O)C1O)C(=O)NC(Cc1c[nH]c2ccccc12)C(=O)O` (configuration not stated), the TGI in assay [1], in assay [2], in assay [4], in assay [5], in assay [6] and in assay [7] was greater than 100 µM each time. Further, the TGI in assay [8], in assay [9], in assay [10], in assay [11], in assay [12] and in assay [13] was greater than 100 µM throughout. Besides, the TGI in [14], in [15], in [16], in assay [17], in assay [18] and in [19] was greater than 100 µM throughout. The TGI in [20] is greater than 100 µM.

On to `CN=C(N)N=Nc1c(O)[nH]c2ccccc12`, for which the TGI in assay [1], in assay [2], in [3], in assay [4], in assay [5] and in [6] was greater than 100 µM each time. Besides, the TGI in [7], in assay [8], in [9], in assay [10], in assay [11] and in [12] was greater than 100 µM throughout. The TGI in assay [13], in assay [14], in assay [15], in assay [16], in [18] and in assay [19] was greater than 100 µM each time. The molecule further returned a TGI in [20] greater than 100 µM.

For `CCCCCCSCC/C(C)=N\OC`, the TGI in assay [1], in [2], in assay [3], in assay [4], in assay [5] and in assay [6] was greater than 100 µM each time. Moreover, the TGI in [7], in assay [8], in assay [9], in assay [10], in assay [11] and in assay [12] was greater than 100 µM throughout. Moreover, the TGI in assay [13], in assay [14], in assay [15], in assay [16], in assay [17] and in [18] was greater than 100 µM throughout. In addition, the TGI in [19] and in [20] was greater than 100 µM each time.

`CCCCCCNC(=S)N/N=C(\C)c1ccccn1`: the TGI was determined as 14.4 µM in assay [1]; 14.6 µM in assay [2]; 10 µM in assay [3]; 16.8 µM in assay [4]; 30.4 µM in assay [6]; 47.2 µM in assay [7]. The TGI came to 20.9 µM in assay [8]; 18.4 µM in [9]; 17.8 µM in [10]; 18.8 µM in assay [11]; 30.6 µM in [12]; 34.7 µM in assay [13]. For the same molecule, the TGI in assay [14] was found to be 25.9 µM; in [15], 24.1 µM; in assay [16] it was 12.5 µM; in assay [17] it was 11.9 µM; in assay [18], 18.5 µM; in [19], 19.3 µM. Also, in assay [20], the TGI was 15.3 µM.

Turning to `COc1cc(C2c3[nH]c4ccccc4c3[C@@H](Nc3ccc(C#N)cc3)[C@H]3COC(=O)N23)cc(OC)c1O` (some centres not stated), the TGI is 0.777 µM in assay [1]; 0.421 µM in [2]; 0.621 µM in [3]; 0.796 µM in [4]; 0.404 µM in assay [5]; 0.839 µM in [6]. Also, the TGI in assay [7] was 4.32 µM; in [8], 0.704 µM; in assay [9], 3 µM; in [10], 2.19 µM; in assay [11], 2.55 µM; in [12], greater than 10 µM. Further, the TGI in [13] amounted to 4.4 µM; in [14], 4.54 µM; in [15], 6.6 µM; in assay [16], 0.734 µM; in assay [17], 0.208 µM; in assay [18], 2.73 µM. For the same molecule, the TGI in assay [19] was 1.49 µM; in assay [20] it was 3.29 µM.

With `C[C@@H]1CCC2C(C)(C)C(/C=C\C=O)C3(C)OC213` (some centres not stated), the TGI in [1], in assay [2], in assay [3], in assay [4], in [6] and in [7] was greater than 100 µM each time. Moreover, the TGI in assay [8] is 78.4 µM; in [9], greater than 100 µM; in [10], greater than 100 µM; in [11] it was greater than 100 µM; in assay [12], greater than 100 µM; in assay [13], greater than 100 µM. Further, the TGI in assay [14] is 69.6 µM; in assay [15], greater than 100 µM; in [16], greater than 100 µM; in [18], greater than 100 µM; in assay [19], greater than 100 µM; in [20], greater than 100 µM.

For `COc1cc(C(c2cccc3ccccc23)N2C(=O)CCC2C(=O)O)cc(OC)c1OC` (configuration not stated), the TGI in [1], in [2], in assay [3], in assay [4], in [5] and in [6] was greater than 100 µM each time. Moreover, the TGI in assay [7], in [9], in assay [10], in assay [11], in assay [12] and in assay [13] was greater than 100 µM in each case. Besides, the TGI in [14], in [15], in [16], in assay [17], in assay [18] and in assay [19] was greater than 100 µM each time. Moreover, the TGI in [20] is greater than 100 µM.

As to `Cc1nc(C)c(N2CCN(C(=O)O)CC2)c(=O)[nH]1`, the TGI in [1], in assay [2], in [3], in assay [4], in [5] and in assay [6] was greater than 100 µM in each case. Moreover, the TGI in assay [7], in assay [8], in assay [9], in assay [10], in [11] and in [12] was greater than 100 µM in each case. Moreover, the TGI in assay [13], in assay [15], in [16], in assay [17], in assay [18] and in [19] was greater than 100 µM in each case. The molecule further returned a TGI in [20] greater than 100 µM.

On to `CCN(CC)c1ccc(C2Nc3ccc4ccccc4c3C3=C2C(=O)CCC3)cc1` (configuration not stated), for which the TGI is greater than 100 µM in assay [1]; greater than 100 µM in [2]; 33.6 µM in [3]; greater than 100 µM in assay [4]; greater than 100 µM in [5]; 62.8 µM in [6]. Also, the TGI in [7] is greater than 100 µM; in assay [8] it was greater than 100 µM; in assay [10] it was greater than 100 µM; in assay [11], greater than 100 µM; in assay [12], greater than 100 µM; in assay [13], 46.4 µM. Further, the TGI in [14] was greater than 100 µM; in assay [15], greater than 100 µM; in [16], greater than 100 µM; in assay [17], 28.1 µM; in [18], greater than 100 µM; in assay [19], greater than 100 µM. For the same molecule, the TGI in [20] is greater than 100 µM.

For `O=[N+]([O-])c1ccc(C2=NOC(c3ccc(Cl)cc3)N2C23CC4CC(CC(C4)C2)C3)cc1` (configuration not stated), the TGI in assay [1], in assay [2], in assay [3], in assay [4], in assay [5] and in [6] was greater than 100 µM each time. The TGI in assay [7], in assay [8], in assay [9], in assay [10], in assay [11] and in assay [12] was greater than 100 µM each time. For the same molecule, the TGI in assay [13], in assay [15], in [16], in [17], in [18] and in assay [19] was greater than 100 µM each time. The same molecule yielded a TGI in assay [20] greater than 100 µM.

In the case of `CC1(C)S[C@H](CN)N[C@H]1C(=O)OC(c1ccccc1)c1ccccc1`, the TGI in assay [1] was 70.4 µM; in assay [2] it was greater than 100 µM; in [3], greater than 100 µM; in [4], 92.2 µM; in assay [6] it was greater than 100 µM; in assay [7], greater than 100 µM. For the same molecule, the TGI in assay [8] is 36 µM; in [9], greater than 100 µM; in [10] it was greater than 100 µM; in [11], greater than 100 µM; in [12], greater than 100 µM; in assay [13], greater than 100 µM. For the same molecule, the TGI in assay [14] is greater than 100 µM; in assay [15], 92.4 µM; in assay [16] it was greater than 100 µM; in assay [18], greater than 100 µM; in assay [19], greater than 100 µM; in assay [20], 40.5 µM.

Turning to `NC(=O)C(=CNC(=S)Nc1ccc(S(=O)(=O)Nc2ccccn2)cc1)C(N)=O`, the TGI in assay [1], in [2], in [3], in assay [4], in assay [5] and in assay [6] was greater than 100 µM throughout. The TGI in assay [7], in assay [9], in assay [10], in assay [11], in assay [12] and in assay [13] was greater than 100 µM throughout. Moreover, the TGI in assay [14], in assay [15], in assay [16], in [17], in assay [18] and in assay [19] was greater than 100 µM throughout. Besides, in assay [20], the TGI is greater than 100 µM.

Regarding `O=C(c1ccccc1)c1ccc2c(c1)nc1n2C(c2c(F)cccc2F)SC1` (configuration not stated), the TGI is 72.5 µM in [1]; greater than 100 µM in assay [2]; greater than 100 µM in assay [3]; greater than 100 µM in assay [4]; greater than 100 µM in assay [6]; 84.5 µM in [7]. The TGI in assay [8], in assay [9], in assay [10], in assay [11], in assay [12] and in [13] was greater than 100 µM each time. The TGI in assay [14], in assay [15], in assay [16], in assay [17], in [18] and in assay [19] was greater than 100 µM in each case. The TGI in [20] was greater than 100 µM.
